Tests used:
Experiment in all cases: relative viability (nuclei count vs DMSO), 5 days (fraction); higher = more cells survive
Tosedostat + Lapatinib = compound: CC(C)C[C@@H](C(=O)N[C@H](C(=O)OC1CCCC1)c1ccccc1)[C@H](O)C(=O)NO [Tosedostat] + CS(=O)(=O)CCNCc1ccc(-c2ccc3ncnc(Nc4ccc(OCc5cccc(F)c5)c(Cl)c4)c3c2)o1 [Lapatinib] (partner 2 µM)
Method in brief: (§1)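 After 5 days of treatment, lung cancer cells in 1536-well plates were fixed and stained in a single step (final 0.05% Triton X-100, 1% formaldehyde, 1 ug/ml Hoechst) and their nuclei counted on 4× images. Treatment had been applied by pin tool the day after seeding as one drug alone or as a fixed anchor-drug dose with five library-drug doses (not always all listed) in √10 steps. Relative viability is the nuclei count of treated wells divided by that of vehicle wells, and values are medians of duplicate plates.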

[1] = compound: CC1=NN=C(O1)C2=NN=C(C=C2)N3CCC(CC3)OC4=C(C=CC(=C4)F)Cl + Cc1cc(Nc2cc(N3CCN(C)CC3)nc(Sc3ccc(NC(=O)C4CC4)cc3)n2)n[nH]1 [Tozasertib] (partner 0.1 µM)
Method in brief: as §1

[2] = compound: CC1=NN=C(O1)C2=NN=C(C=C2)N3CCC(CC3)OC4=C(C=CC(=C4)F)Cl + O=C(c1cc(Cc2n[nH]c(=O)c3ccccc23)ccc1F)N1CCN(C(=O)C2CC2)CC1 [Olaparib] (partner 8 µM)
Method in brief: as §1

[3] = compound: CC1=NN=C(O1)C2=NN=C(C=C2)N3CCC(CC3)OC4=C(C=CC(=C4)F)Cl + Cc1nc(NC(=O)N2CCC[C@H]2C(N)=O)sc1-c1ccnc(C(C)(C)C(F)(F)F)c1 [Alpelisib] (partner 2 µM)
Method in brief: as §1

NCI-H1944 showed a relative viability (Tosedostat + Lapatinib; first compound 0.02 µM) of 0.94, a relative viability (Tosedostat + Lapatinib; first compound 0.06325 µM) of 0.836 and a relative viability (Tosedostat + Lapatinib; first compound 0.2 µM) of 0.854. It also gave a relative viability (Tosedostat + Lapatinib; first compound 0.6325 µM) of 0.81, a relative viability (Tosedostat + Lapatinib; first compound 2 µM) of 0.904 and a relative viability ([1]; first compound 0.253 µM) of 0.22. It also gave a relative viability ([1]; first compound 0.8 µM) of 0.216, a relative viability ([1]; first compound 2.53 µM) of 0.213 and a relative viability ([1]; first compound 8 µM) of 0.229. For the same cell line, the relative viability ([2]; first compound 0.253 µM) was 0.289, the relative viability ([2]; first compound 0.8 µM) was 0.337 and the relative viability ([2]; first compound 2.53 µM) was 0.359. For the same cell line, the relative viability ([2]; first compound 8 µM) was 0.344, the relative viability ([3]; first compound 0.253 µM) was 0.565 and the relative viability ([3]; first compound 0.8 µM) was 0.629. It also gave a relative viability ([3]; first compound 2.53 µM) of 0.691 and a relative viability ([3]; first compound 8 µM) of 0.648.

With NCI-H1975 the relative viability (Tosedostat + Lapatinib; first compound 0.02 µM) was 0.835, the relative viability (Tosedostat + Lapatinib; first compound 0.06325 µM) was 0.966 and the relative viability (Tosedostat + Lapatinib; first compound 0.2 µM) was 0.86. For the same cell line, the relative viability (Tosedostat + Lapatinib; first compound 0.6325 µM) was 0.703, the relative viability (Tosedostat + Lapatinib; first compound 2 µM) was 0.751 and the relative viability ([1]; first compound 0.8 µM) was 0.595. It also gave a relative viability ([1]; first compound 2.53 µM) of 0.48, a relative viability ([1]; first compound 8 µM) of 0.261 and a relative viability ([2]; first compound 0.253 µM) of 0.466. For the same cell line, the relative viability ([2]; first compound 0.8 µM) was 0.574, the relative viability ([2]; first compound 2.53 µM) was 0.518 and the relative viability ([2]; first compound 8 µM) was 0.533. It also gave a relative viability ([3]; first compound 0.8 µM) of 0.725, a relative viability ([3]; first compound 2.53 µM) of 0.753 and a relative viability ([3]; first compound 8 µM) of 0.779.

NCI-H1993 gave a relative viability (Tosedostat + Lapatinib; first compound 0.02 µM) of 0.904, a relative viability (Tosedostat + Lapatinib; first compound 0.06325 µM) of 0.997 and a relative viability (Tosedostat + Lapatinib; first compound 0.2 µM) of 0.857. For the same cell line, the relative viability (Tosedostat + Lapatinib; first compound 0.6325 µM) was 0.87, the relative viability (Tosedostat + Lapatinib; first compound 2 µM) was 0.734 and the relative viability ([1]; first compound 0.253 µM) was 0.558. It also gave a relative viability ([1]; first compound 0.8 µM) of 0.603, a relative viability ([1]; first compound 2.53 µM) of 0.635 and a relative viability ([1]; first compound 8 µM) of 0.571. The relative viability ([2]; first compound 0.253 µM) was 0.894, the relative viability ([2]; first compound 0.8 µM) was 0.758 and the relative viability ([2]; first compound 2.53 µM) was 0.855. It also gave a relative viability ([2]; first compound 8 µM) of 0.856, a relative viability ([3]; first compound 0.253 µM) of 0.616 and a relative viability ([3]; first compound 0.8 µM) of 0.619. The relative viability ([3]; first compound 2.53 µM) was 0.65 and the relative viability ([3]; first compound 8 µM) was 0.702.

NCI-H2009 showed a relative viability (Tosedostat + Lapatinib; first compound 0.02 µM) of 1.25, a relative viability (Tosedostat + Lapatinib; first compound 0.06325 µM) of 0.956 and a relative viability (Tosedostat + Lapatinib; first compound 0.2 µM) of 1.03. It also gave a relative viability (Tosedostat + Lapatinib; first compound 0.6325 µM) of 0.78, a relative viability (Tosedostat + Lapatinib; first compound 2 µM) of 0.663 and a relative viability ([1]; first compound 0.253 µM) of 0.372. It also gave a relative viability ([1]; first compound 0.8 µM) of 0.39, a relative viability ([1]; first compound 2.53 µM) of 0.376 and a relative viability ([1]; first compound 8 µM) of 0.353. For the same cell line, the relative viability ([2]; first compound 0.253 µM) was 0.363, the relative viability ([2]; first compound 0.8 µM) was 0.39 and the relative viability ([2]; first compound 2.53 µM) was 0.421. For the same cell line, the relative viability ([2]; first compound 8 µM) was 0.375, the relative viability ([3]; first compound 0.253 µM) was 0.712 and the relative viability ([3]; first compound 0.8 µM) was 0.714. The relative viability ([3]; first compound 2.53 µM) was 0.646 and the relative viability ([3]; first compound 8 µM) was 0.626.

For NCI-H2023, the relative viability (Tosedostat + Lapatinib; first compound 0.02 µM) was 0.94, the relative viability (Tosedostat + Lapatinib; first compound 0.06325 µM) was 0.953 and the relative viability (Tosedostat + Lapatinib; first compound 0.2 µM) was 0.795. It also gave a relative viability (Tosedostat + Lapatinib; first compound 0.6325 µM) of 0.457, a relative viability (Tosedostat + Lapatinib; first compound 2 µM) of 0.753 and a relative viability ([1]; first compound 0.253 µM) of 0.301. For the same cell line, the relative viability ([1]; first compound 0.8 µM) was 0.216, the relative viability ([1]; first compound 2.53 µM) was 0.205 and the relative viability ([1]; first compound 8 µM) was 0.147. For the same cell line, the relative viability ([2]; first compound 0.253 µM) was 0.311, the relative viability ([2]; first compound 0.8 µM) was 0.274 and the relative viability ([2]; first compound 2.53 µM) was 0.307. The relative viability ([2]; first compound 8 µM) was 0.235, the relative viability ([3]; first compound 0.253 µM) was 0.499 and the relative viability ([3]; first compound 0.8 µM) was 0.444. For the same cell line, the relative viability ([3]; first compound 2.53 µM) was 0.43 and the relative viability ([3]; first compound 8 µM) was 0.361.

Cell Line NCI-H2085 has a relative viability (Tosedostat + Lapatinib; first compound 0.02 µM) of 0.568, a relative viability (Tosedostat + Lapatinib; first compound 0.06325 µM) of 0.825 and a relative viability (Tosedostat + Lapatinib; first compound 0.2 µM) of 0.827. It also gave a relative viability (Tosedostat + Lapatinib; first compound 0.6325 µM) of 0.743, a relative viability (Tosedostat + Lapatinib; first compound 2 µM) of 0.836 and a relative viability ([1]; first compound 0.253 µM) of 0.454. For the same cell line, the relative viability ([1]; first compound 0.8 µM) was 0.614, the relative viability ([1]; first compound 2.53 µM) was 0.538 and the relative viability ([1]; first compound 8 µM) was 0.515. The relative viability ([2]; first compound 0.253 µM) was 0.636, the relative viability ([2]; first compound 0.8 µM) was 0.604 and the relative viability ([2]; first compound 2.53 µM) was 0.709. For the same cell line, the relative viability ([2]; first compound 8 µM) was 0.553, the relative viability ([3]; first compound 0.253 µM) was 0.922 and the relative viability ([3]; first compound 0.8 µM) was 0.908. It also gave a relative viability ([3]; first compound 2.53 µM) of 0.8 and a relative viability ([3]; first compound 8 µM) of 0.71.

Work on NCI-H2087 yielded a relative viability (Tosedostat + Lapatinib; first compound 0.02 µM) of 1.08, a relative viability (Tosedostat + Lapatinib; first compound 0.06325 µM) of 1.1 and a relative viability (Tosedostat + Lapatinib; first compound 0.2 µM) of 1.1. It also gave a relative viability (Tosedostat + Lapatinib; first compound 0.6325 µM) of 0.907, a relative viability (Tosedostat + Lapatinib; first compound 2 µM) of 0.844 and a relative viability ([1]; first compound 0.253 µM) of 0.194. The relative viability ([1]; first compound 0.8 µM) was 0.157, the relative viability ([1]; first compound 2.53 µM) was 0.156 and the relative viability ([1]; first compound 8 µM) was 0.114. For the same cell line, the relative viability ([2]; first compound 0.253 µM) was 0.502, the relative viability ([2]; first compound 0.8 µM) was 0.34 and the relative viability ([2]; first compound 2.53 µM) was 0.485. For the same cell line, the relative viability ([2]; first compound 8 µM) was 0.425, the relative viability ([3]; first compound 0.253 µM) was 0.762 and the relative viability ([3]; first compound 0.8 µM) was 0.674. It also gave a relative viability ([3]; first compound 2.53 µM) of 0.615 and a relative viability ([3]; first compound 8 µM) of 0.615.

NCI-H2126 gave a relative viability (Tosedostat + Lapatinib; first compound 0.02 µM) of 0.705, a relative viability (Tosedostat + Lapatinib; first compound 0.06325 µM) of 0.754 and a relative viability (Tosedostat + Lapatinib; first compound 0.2 µM) of 0.83. For the same cell line, the relative viability (Tosedostat + Lapatinib; first compound 0.6325 µM) was 0.76, the relative viability (Tosedostat + Lapatinib; first compound 2 µM) was 0.674 and the relative viability ([1]; first compound 0.253 µM) was 0.765. The relative viability ([1]; first compound 0.8 µM) was 0.786, the relative viability ([1]; first compound 2.53 µM) was 0.763 and the relative viability ([1]; first compound 8 µM) was 0.715. It also gave a relative viability ([2]; first compound 0.253 µM) of 0.816, a relative viability ([2]; first compound 0.8 µM) of 0.697 and a relative viability ([2]; first compound 2.53 µM) of 0.767. The relative viability ([2]; first compound 8 µM) was 0.76, the relative viability ([3]; first compound 0.253 µM) was 0.696 and the relative viability ([3]; first compound 0.8 µM) was 0.666. For the same cell line, the relative viability ([3]; first compound 2.53 µM) was 0.711 and the relative viability ([3]; first compound 8 µM) was 0.598.

In the case of NCI-H2170, the relative viability (Tosedostat + Lapatinib; first compound 0.02 µM) is reported as 0.25, the relative viability (Tosedostat + Lapatinib; first compound 0.06325 µM) is reported as 0.258 and the relative viability (Tosedostat + Lapatinib; first compound 0.2 µM) is reported as 0.273. It also gave a relative viability (Tosedostat + Lapatinib; first compound 0.6325 µM) of 0.289, a relative viability (Tosedostat + Lapatinib; first compound 2 µM) of 0.276 and a relative viability ([1]; first compound 0.253 µM) of 0.306. It also gave a relative viability ([1]; first compound 0.8 µM) of 0.416, a relative viability ([1]; first compound 2.53 µM) of 0.392 and a relative viability ([1]; first compound 8 µM) of 0.331. The relative viability ([2]; first compound 0.253 µM) was 0.303, the relative viability ([2]; first compound 0.8 µM) was 0.248 and the relative viability ([2]; first compound 2.53 µM) was 0.342. It also gave a relative viability ([2]; first compound 8 µM) of 0.256, a relative viability ([3]; first compound 0.253 µM) of 0.646 and a relative viability ([3]; first compound 0.8 µM) of 0.593. For the same cell line, the relative viability ([3]; first compound 2.53 µM) was 0.626 and the relative viability ([3]; first compound 8 µM) was 0.574.

From the supplement of paper PMC10307832
